# According to ChEMBL document CHEMBL3822442, “Synthesis and Pharmacological Characterization of Novel Glucagon-like Peptide-2 (GLP-2) Analogues with Low Systemic Clearance” (J Med Chem, 2016):
# Calls of active or inactive are those of the source. The rule behind the calls is not given here.
# How the values were obtained:
# Format in all cases: cell-based
# [1] = biological target: T1, Glucagon-like peptide 1 receptor (Homo sapiens, UniProt P43220); experiment: Agonist activity at human GLP1R expressed in HEK293 cells at 30 nM after 5 hrs by luciferase reporter gene assay
# T1 sequence (P43220 whole entry): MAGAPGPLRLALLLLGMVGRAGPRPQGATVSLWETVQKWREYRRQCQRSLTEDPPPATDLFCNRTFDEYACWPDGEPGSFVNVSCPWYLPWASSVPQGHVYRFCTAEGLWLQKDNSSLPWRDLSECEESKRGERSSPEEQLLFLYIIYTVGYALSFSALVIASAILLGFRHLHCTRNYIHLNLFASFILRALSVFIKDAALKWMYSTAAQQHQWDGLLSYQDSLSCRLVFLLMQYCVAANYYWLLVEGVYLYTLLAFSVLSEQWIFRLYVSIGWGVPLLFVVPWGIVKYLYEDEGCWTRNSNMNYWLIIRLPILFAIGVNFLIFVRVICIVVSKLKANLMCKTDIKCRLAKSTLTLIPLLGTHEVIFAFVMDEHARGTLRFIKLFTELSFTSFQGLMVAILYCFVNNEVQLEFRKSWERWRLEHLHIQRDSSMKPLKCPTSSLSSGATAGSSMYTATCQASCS
# [2] = test system: HEK293; experiment: Selectivity ratio of EC50 for human GLP1R expressed in HEK293 cells to EC50 for human GLP2R expressed in HEK293
# [3] = biological target: Glucagon receptor (Homo sapiens) (UniProt P47871); experiment: Agonist activity at human GCGR expressed in HEK293 cells after 5 hrs by luciferase reporter gene assay
# Sequence of Glucagon receptor (Homo sapiens) (P47871 whole entry): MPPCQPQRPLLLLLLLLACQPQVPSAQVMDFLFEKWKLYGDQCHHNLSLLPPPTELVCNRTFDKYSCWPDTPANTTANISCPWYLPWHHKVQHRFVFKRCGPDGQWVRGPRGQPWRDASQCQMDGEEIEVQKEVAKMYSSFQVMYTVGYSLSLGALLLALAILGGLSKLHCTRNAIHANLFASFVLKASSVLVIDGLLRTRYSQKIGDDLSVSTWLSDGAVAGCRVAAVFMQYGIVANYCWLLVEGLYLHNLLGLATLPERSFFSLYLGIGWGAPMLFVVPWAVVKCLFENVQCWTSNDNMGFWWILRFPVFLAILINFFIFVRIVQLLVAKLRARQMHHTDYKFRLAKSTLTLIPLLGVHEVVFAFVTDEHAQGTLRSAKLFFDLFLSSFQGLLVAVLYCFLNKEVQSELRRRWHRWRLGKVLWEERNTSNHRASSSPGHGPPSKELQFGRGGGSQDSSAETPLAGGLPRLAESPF
# [4] = biological target: T1, Glucagon-like peptide 1 receptor; experiment: Agonist activity at human GLP1R expressed in HEK293 cells after 5 hrs by luciferase reporter gene assay
# [5] = biological target: T2, Glucagon-like peptide 2 receptor (Homo sapiens, UniProt O95838); experiment: Agonist activity at human GLP2R expressed in HEK293 cells after 5 hrs by luciferase reporter gene assay
# T2 sequence (O95838 whole entry): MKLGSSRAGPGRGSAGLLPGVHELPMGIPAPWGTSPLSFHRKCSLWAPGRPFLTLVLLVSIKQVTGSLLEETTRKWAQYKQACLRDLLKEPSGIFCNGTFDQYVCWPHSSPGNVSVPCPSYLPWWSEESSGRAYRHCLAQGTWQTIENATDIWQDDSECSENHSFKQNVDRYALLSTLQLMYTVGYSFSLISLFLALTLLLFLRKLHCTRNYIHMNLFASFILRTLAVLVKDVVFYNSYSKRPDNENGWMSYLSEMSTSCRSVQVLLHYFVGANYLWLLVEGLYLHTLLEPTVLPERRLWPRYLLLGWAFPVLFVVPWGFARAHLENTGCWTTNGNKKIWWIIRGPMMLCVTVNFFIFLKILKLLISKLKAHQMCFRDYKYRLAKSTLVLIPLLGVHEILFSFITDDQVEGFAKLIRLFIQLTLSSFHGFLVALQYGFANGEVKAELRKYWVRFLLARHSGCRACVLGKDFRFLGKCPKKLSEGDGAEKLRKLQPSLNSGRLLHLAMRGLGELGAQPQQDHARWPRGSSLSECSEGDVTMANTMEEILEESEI
SMILES,Efficacy [1],Ratio EC50 [2],Activity [3],EC50 [4],EC50 [5]
CC[C@H](C)[C@H](NC(=O)[C@H](Cc1ccccc1)NC(=O)[C@H](CC(=O)O)NC(=O)[C@H](CCCNC(=N)N)NC(=O)[C@H](C)NC(=O)[C@H](C)NC(=O)[C@H](CC(C)C)NC(=O)[C@H](CC(N)=O)NC(=O)[C@H](CC(=O)O)NC(=O)[C@H](CC(C)C)NC(=O)[C@@H](NC(=O)[C@@H](NC(=O)[C@H](CC(N)=O)NC(=O)[C@H](CCSC)NC(=O)[C@H](CCC(=O)O)NC(=O)[C@H](CC(=O)O)NC(=O)[C@H](CO)NC(=O)[C@H](Cc1ccccc1)NC(=O)[C@H](CO)NC(=O)CNC(=O)[C@H](CC(=O)O)NC(=O)[C@H](C)NC(=O)[C@@H](N)Cc1cnc[nH]1)[C@@H](C)O)[C@@H](C)CC)C(=O)N[C@@H](CC(N)=O)C(=O)N[C@@H](Cc1c[nH]c2ccccc12)C(=O)N[C@@H](CC(C)C)C(=O)N[C@H](C(=O)N[C@@H](CCC(N)=O)C(=O)N[C@H](C(=O)N[C@@H](CCCCN)C(=O)N[C@H](C(=O)N[C@H](C(=O)N[C@@H](CC(=O)O)C(=O)O)[C@@H](C)O)[C@@H](C)CC)[C@@H](C)O)[C@@H](C)CC,71%,,,,
CCCCC(NC(=O)[C@H](CCC(=O)O)NC(=O)[C@H](CC(=O)O)NC(=O)[C@H](CO)NC(=O)[C@H](Cc1ccccc1)NC(=O)[C@H](CO)NC(=O)CNC(=O)[C@H](CC(=O)O)NC(=O)CNC(=O)[C@@H](N)Cc1cnc[nH]1)C(=O)N[C@H](Cc1ccc(Cl)cc1)C(=O)N[C@H](C(=O)N[C@H](C(=O)N[C@@H](CC(C)C)C(=O)N[C@@H](CC(=O)O)C(=O)N[C@@H](CC(N)=O)C(=O)N[C@@H](CC(C)C)C(=O)N[C@@H](C)C(=O)N[C@@H](C)C(=O)N[C@@H](CCCNC(=N)N)C(=O)N[C@@H](CC(=O)O)C(=O)N[C@@H](Cc1ccccc1)C(=O)N[C@H](C(=O)N[C@@H](CC(N)=O)C(=O)N[C@@H](Cc1c[nH]c2ccccc12)C(=O)N[C@@H](CC(C)C)C(=O)N[C@H](C(=O)N[C@@H](CCC(N)=O)C(=O)N[C@H](C(=O)N[C@@H](CCCCN)C(N)=O)[C@@H](C)O)[C@@H](C)CC)[C@@H](C)CC)[C@@H](C)CC)[C@@H](C)O (stereo partly specified),86%,660,inactive,,
CCCCC(NC(=O)[C@H](CCC(=O)O)NC(=O)[C@H](CC(=O)O)NC(=O)[C@H](CO)NC(=O)[C@H](Cc1ccccc1)NC(=O)[C@H](CO)NC(=O)CNC(=O)[C@H](CC(=O)O)NC(=O)CNC(=O)[C@@H](N)Cc1cnc[nH]1)C(=O)N[C@H](Cc1ccc(-c2ccccc2)cc1)C(=O)N[C@H](C(=O)N[C@H](C(=O)N[C@@H](CC(C)C)C(=O)N[C@@H](CC(=O)O)C(=O)N[C@@H](CC(N)=O)C(=O)N[C@@H](CC(C)C)C(=O)N[C@@H](C)C(=O)N[C@@H](C)C(=O)N[C@@H](CCCNC(=N)N)C(=O)N[C@@H](CC(=O)O)C(=O)N[C@@H](Cc1ccccc1)C(=O)N[C@H](C(=O)N[C@@H](CC(N)=O)C(=O)N[C@@H](Cc1c[nH]c2ccccc12)C(=O)N[C@@H](CC(C)C)C(=O)N[C@H](C(=O)N[C@@H](CCC(N)=O)C(=O)N[C@H](C(=O)N[C@@H](CCCCN)C(N)=O)[C@@H](C)O)[C@@H](C)CC)[C@@H](C)CC)[C@@H](C)CC)[C@@H](C)O (stereo partly specified),108%,20,inactive,39 nM,1.9 nM
CCCCC(NC(=O)[C@H](CCC(=O)O)NC(=O)[C@H](CC(=O)O)NC(=O)[C@H](CO)NC(=O)[C@H](Cc1ccccc1)NC(=O)[C@H](CO)NC(=O)CNC(=O)[C@H](CC(=O)O)NC(=O)CNC(=O)[C@@H](N)Cc1cnc[nH]1)C(=O)N[C@@H](Cc1cnc[nH]1)C(=O)N[C@H](C(=O)N[C@H](C(=O)N[C@@H](CC(C)C)C(=O)N[C@@H](CC(=O)O)C(=O)N[C@@H](CC(N)=O)C(=O)N[C@@H](CC(C)C)C(=O)N[C@@H](C)C(=O)N[C@@H](C)C(=O)N[C@@H](CCCNC(=N)N)C(=O)N[C@@H](CC(=O)O)C(=O)N[C@@H](Cc1ccccc1)C(=O)N[C@H](C(=O)N[C@@H](CC(N)=O)C(=O)N[C@@H](Cc1c[nH]c2ccccc12)C(=O)N[C@@H](CC(C)C)C(=O)N[C@H](C(=O)N[C@@H](CCC(N)=O)C(=O)N[C@H](C(=O)N[C@@H](CCCCN)C(N)=O)[C@@H](C)O)[C@@H](C)CC)[C@@H](C)CC)[C@@H](C)CC)[C@@H](C)O (stereo partly specified),35%,680,inactive,300 nM,0.44 nM
CCCCC(NC(=O)[C@@H](CCC(=O)O)NC(=O)[C@@H](CC(=O)O)NC(=O)[C@@H](CO)NC(=O)[C@@H](Cc1ccccc1)NC(=O)[C@@H](CO)NC(=O)CNC(=O)[C@@H](CC(=O)O)NC(=O)CNC(=O)[C@@H](N)Cc1cnc[nH]1)C(=O)NC(Cc1ccc(-c2ccccc2)cc1)C(=O)N[C@@H](C(=O)N[C@@H](C(=O)N[C@H](CC(C)C)C(=O)N[C@H](CC(=O)O)C(=O)N[C@H](CC(N)=O)C(=O)N[C@H](CC(C)C)C(=O)N[C@H](C)C(=O)N[C@H](C)C(=O)N[C@H](CCCNC(=N)N)C(=O)N[C@H](CC(=O)O)C(=O)N[C@H](Cc1ccccc1)C(=O)N[C@@H](C(=O)N[C@H](CC(N)=O)C(=O)N[C@@H](Cc1c[nH]c2ccccc12)C(=O)N[C@@H](CC(C)C)C(=O)N[C@H](C(=O)N[C@@H](CCC(N)=O)C(=O)N[C@H](C(=O)N[C@H](CCCCN)C(N)=O)[C@@H](C)O)[C@H](C)CC)[C@@H](C)CC)[C@H](C)CC)[C@H](C)O (stereo partly specified),83%,110,inactive,21 nM,0.18 nM
CCCCC(NC(=O)[C@H](CCC(=O)O)NC(=O)[C@H](CC(=O)O)NC(=O)[C@H](CO)NC(=O)[C@H](Cc1ccccc1)NC(=O)[C@H](CO)NC(=O)CNC(=O)[C@H](CC(=O)O)NC(=O)CNC(=O)[C@@H](N)Cc1cnc[nH]1)C(=O)N[C@H](Cc1ccccc1)C(=O)N[C@H](C(=O)N[C@H](C(=O)N[C@@H](CC(C)C)C(=O)N[C@@H](CC(=O)O)C(=O)N[C@@H](CC(N)=O)C(=O)N[C@@H](CC(C)C)C(=O)N[C@@H](C)C(=O)N[C@@H](C)C(=O)N[C@@H](CCCNC(=N)N)C(=O)N[C@@H](CC(=O)O)C(=O)N[C@@H](Cc1ccccc1)C(=O)N[C@H](C(=O)N[C@@H](CC(N)=O)C(=O)N[C@@H](Cc1c[nH]c2ccccc12)C(=O)N[C@@H](CC(C)C)C(=O)N[C@H](C(=O)N[C@@H](CCC(N)=O)C(=O)N[C@H](C(=O)N[C@@H](CCCCN)C(N)=O)[C@@H](C)O)[C@@H](C)CC)[C@@H](C)CC)[C@@H](C)CC)[C@@H](C)O (stereo partly specified),64%,1300,inactive,,
CCCCC(NC(=O)[C@H](CCC(=O)O)NC(=O)[C@H](CC(=O)O)NC(=O)[C@H](CO)NC(=O)[C@H](Cc1ccccc1)NC(=O)[C@H](CO)NC(=O)CNC(=O)[C@H](CC(=O)O)NC(=O)CNC(=O)[C@@H](N)Cc1cnc[nH]1)C(=O)N[C@@H](CC(C)C)C(=O)N[C@H](C(=O)N[C@H](C(=O)N[C@@H](CC(C)C)C(=O)N[C@@H](CC(=O)O)C(=O)N[C@@H](CC(N)=O)C(=O)N[C@@H](CC(C)C)C(=O)N[C@@H](C)C(=O)N[C@@H](C)C(=O)N[C@@H](CCCNC(=N)N)C(=O)N[C@@H](CC(=O)O)C(=O)N[C@@H](Cc1ccccc1)C(=O)N[C@H](C(=O)N[C@@H](CC(N)=O)C(=O)N[C@@H](Cc1c[nH]c2ccccc12)C(=O)N[C@@H](CC(C)C)C(=O)N[C@H](C(=O)N[C@@H](CCC(N)=O)C(=O)N[C@H](C(=O)N[C@@H](CCCCN)C(N)=O)[C@@H](C)O)[C@@H](C)CC)[C@@H](C)CC)[C@@H](C)CC)[C@@H](C)O (stereo partly specified),44%,,inactive,180 nM,0.15 nM
CCCCC(NC(=O)[C@H](CCC(=O)O)NC(=O)[C@H](CC(=O)O)NC(=O)[C@H](CO)NC(=O)[C@H](Cc1ccccc1)NC(=O)[C@@H](CO)NC(=O)CNC(=O)[C@@H](CC(=O)O)NC(=O)CNC(=O)[C@@H](N)Cc1cnc[nH]1)C(=O)NC(CCC(C)C)C(=O)N[C@H](C(=O)N[C@H](C(=O)N[C@@H](CC(C)C)C(=O)N[C@@H](CC(=O)O)C(=O)N[C@@H](CC(N)=O)C(=O)N[C@@H](CC(C)C)C(=O)N[C@@H](C)C(=O)N[C@@H](C)C(=O)N[C@@H](CCCNC(=N)N)C(=O)N[C@@H](CC(=O)O)C(=O)N[C@H](Cc1ccccc1)C(=O)N[C@@H](C(=O)N[C@H](CC(N)=O)C(=O)N[C@@H](Cc1c[nH]c2ccccc12)C(=O)N[C@H](CC(C)C)C(=O)N[C@@H](C(=O)N[C@H](CCC(N)=O)C(=O)N[C@@H](C(=O)N[C@@H](CCCCN)C(N)=O)[C@H](C)O)[C@H](C)CC)[C@H](C)CC)[C@H](C)CC)[C@@H](C)O (stereo partly specified),87%,34,inactive,10 nM,0.29 nM
